In US20250000766A1, “ANTIMICROBIAL ESTERS FOR SKIN AND SCALP CARE” (SYMRISE AG, priority 2021, published 2025):
Like-named read-outs stand apart in the source and are kept apart here.

Key:
M. globosa = test system: M. globosa; parameters: unit not given here; settings: cited from earlier work
M. restricta = test system: M. restricta; parameters: unit not given here; settings: M. restricta strain 7877; cited from earlier work
M. sympodialis = test system: M. sympodialis; parameters: unit not given here; settings: cited from earlier work
M. sympodialis DSM 6171 = assay: Agar dilution test, growth inhibition (MIC) of M. sympodialis DSM 6171; format: cell-based; settings: MLN agar, 7 days at 30° C.
Experimental: (§1) The fatty acid esters and their mixtures were tested for growth inhibition against Malassezia. The following reference strains were included:
(§2) Tests were performed in 6 well plates on solid media using agar dilution tests. Stock solutions of test substances were prepared in DMSO. Lower test concentrations were obtained by diluting stock solutions in DMSO.
(§3) Briefly, microorganisms are inoculated on modified Leeming & Notman (MLN) agar. A well grown plate is harvested in a 0.8% NaCl solution. Dilutions of test substances are prepared according to the concentration range required for the test. 5 μl of the test sample and controls are complemented with 500 μl MLN agar and mixed by shaking. 200 μl of liquid MLN per well are added onto the solidified agar. Afterwards, 20 μl of inoculum solution is added, with except of the blanks, and samples are incubated for 7 days at 30° C. Typical concentrations to be tested are 5000 ppm, 2500 ppm, and 1:1 dilutions from 1000 ppm (500 ppm, 250 ppm, etc).
(§4) Appropriate controls are included to show the growth of organisms without antifungal substances and antifungal activity of reference substances.

M. globosa CBS 7966 = assay: Agar dilution test, growth inhibition (MIC) of M. globosa CBS 7966; format: cell-based; settings: MLN agar, 7 days at 30° C.
Experimental: as §1, §2, §3, §4

M. restricta CBS 7877 = assay: Agar dilution test, growth inhibition (MIC) of M. restricta CBS 7877; format: cell-based; settings: MLN agar, 7 days at 30° C.
Experimental: as §1, §2, §3, §4

Molecule | MIC (M. globosa; M. globosa strain 7705) | MIC (M. globosa; M. globosa strain 7966) | MIC (M. globosa; M. globosa strain PM1) | MIC (M. restricta) | MIC (M. sympodialis; M. sympodialis strain 6171) | MIC (M. sympodialis; M. sympodialis strain 7222) | MIC (M. sympodialis; M. sympodialis strain 7979) | MIC (M. sympodialis; M. sympodialis strain 42132) | Minimal inhibitory concentration (MIC) (M. sympodialis DSM 6171) [ppm] | Minimal inhibitory concentration (MIC) (M. globosa CBS 7966) [ppm] | Minimal inhibitory concentration (MIC) (M. restricta CBS 7877) [ppm]
CCCCCCCC(=O)OCCCO [3-Hydroxypropyl caprylate, 3-hydroxypropyl caprylate] | 1,000 | 1,000 | 500 | 1,000 | 2,000 | 1,000 | 2,000 | 1,000 | – | – | –
CCCCCCCC(=O)OCC [Ethyl caprylate, ethyl caprylate] | – | 1,000 | 1,000 | 4,000 | 1,000 | 1,000 | 1,000 | 1,000 | – | – | –
CCCCCCCC(=O)OCC(O)CO (stereo not drawn) [Glyceryl monocaprylate, glyceryl monocaprylate] | 1,000 | 1,000 | – | 300 | 2,000 | 1,000 | 1,000 | 1,000 | – | – | –
polyglyceryl-3 caprylate [Polyglyceryl-3-caprylate] | – | – | – | – | – | – | – | – | 2.500 | 1.000 | –
sorbitan caprylate | – | – | – | – | – | – | – | – | 5.000 | 1.000 | 2.500
xylityl sesquicaprylate | – | – | – | – | – | – | – | – | 2.500 | 1.000 | 2.500
